Experimental data from the supplement of paper PMC11061612.

How the values were obtained:
Assay in all cases: combination Emax (second highest fraction inhibited in the dose matrix, 72 h); higher = more inhibition; extreme values may be limits of the assay
[1] = test system: CAPAN-1 (Pancreatic Carcinoma)
Summary of the method: (§1)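 Cell lines grown in DMEM/F12 or RPMI with 10% FBS were plated in 1536-well plates and held 24 hours at 37°C, 5% CO2 before 72 hours of exposure to two-drug dose matrices, with DMSO typically at 0.2%. CellTiter-Glo 2.0 luminescence gave viability, which was converted to inhibition. Vehicle wells were set to 0 and blank wells to 1. Combination Emax is the second-highest inhibition in the matrix, and Bliss excess is the observed combination effect minus the expected EA + EB − EA·EB, where EA and EB are the single-agent effects.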

[2] = test system: EN (Endometrial Carcinoma)
Summary of the method: as §1

[3] = test system: HCC-15 (Squamous Cell Lung Carcinoma)
Summary of the method: as §1

[4] = test system: HDLM-2 (Hodgkin's Lymphoma)
Summary of the method: as §1

[5] = test system: HO-1-u-1 (Oral Cavity Carcinoma)
Summary of the method: as §1

[6] = test system: K5 (Thyroid Gland Carcinoma)
Summary of the method: as §1

[7] = test system: KYSE-410 (Esophageal Squamous Cell Carcinoma)
Summary of the method: as §1

[8] = test system: LB771-HNC (Head and Neck Carcinoma)
Summary of the method: as §1

[9] = test system: MDA-MB-468 (Breast Carcinoma)
Summary of the method: as §1

[10] = test system: MHH-PREB-1 (B-Cell Non-Hodgkin's Lymphoma)
Summary of the method: as §1

[11] = test system: NB14 (Neuroblastoma)
Summary of the method: as §1

[12] = test system: NCI-H2795 (Mesothelioma)
Summary of the method: as §1

[13] = test system: NCI-H69 (Small Cell Lung Carcinoma)
Summary of the method: as §1

[14] = test system: OVCAR-8 (Ovarian Carcinoma)
Summary of the method: as §1

[15] = test system: RKO (Colorectal Carcinoma)
Summary of the method: as §1

[16] = test system: SH-4 (Melanoma)
Summary of the method: as §1

[17] = test system: SK-OV-3 (Ovarian Carcinoma)
Summary of the method: as §1

[18] = test system: SUP-T1 (T-Lymphoblastic Leukemia)
Summary of the method: as §1

[19] = test system: SW1271 (Small Cell Lung Carcinoma)
Summary of the method: as §1

[20] = test system: SW626 (Colorectal Carcinoma)
Summary of the method: as §1

Structure (SMILES) | combination Emax [1] | combination Emax [2] | combination Emax [3] | combination Emax [4] | combination Emax [5] | combination Emax [6] | combination Emax [7] | combination Emax [8] | combination Emax [9] | combination Emax [10] | combination Emax [11] | combination Emax [12] | combination Emax [13] | combination Emax [14] | combination Emax [15] | combination Emax [16] | combination Emax [17] | combination Emax [18] | combination Emax [19] | combination Emax [20]
CN(C)CCCOc1ccc(-c2ccc3ncc4c(c3c2)n(C2CCOCC2)c(=O)n4C)cn1 [AZD0156] + O=C(c1cc(Cc2n[nH]c(=O)c3ccccc23)ccc1F)N1CCN(C(=O)C2CC2)CC1 [Olaparib] (first compound max 3 µM, partner max 3 µM) | 0.295 | 0.227 | 0.371 | 0.207 | 0.408 | 0.314 | 0.172 | 0.223 | 0.392 | 0.378 | 0.611 | 0.384 | 0.354 | 0.316 | 0.284 | 0.327 | 0.228 | 0.432 | 0.351 | 0.164
NC1(C(=O)N[C@@H](CCO)c2ccc(Cl)cc2)CCN(c2ncnc3[nH]ccc23)CC1 [Capivasertib] + CC(C)n1c(=O)n(C)c2cnc3cc(F)c(-c4ccc(OCCCN5CCCCC5)nc4)cc3c21 [AZD1390] (first compound max 10 µM, 7x7, partner max 0.3 µM) | 0.044 | 0.574 | 0.26 | 0.298 | 0.746 | 0.405 | 0.327 | 0.395 | 0.518 | 0.21 | 0.381 | 0.394 | 0.514 | 0.255 | 0.524 | 0.359 | 0.383 | 0.718 | 0.371 | 0.273
CN(CCO)CC[C@H](CSc1ccccc1)Nc1ccc(S(=O)(=O)NC(=O)c2ccc(N3CCC([C@@H](O)c4ccccc4-c4ccc(Cl)cc4)CC3)cc2)cc1S(=O)(=O)C(F)(F)F [AZD4320] + CN(C)CCCOc1ccc(-c2ccc3ncc4c(c3c2)n(C2CCOCC2)c(=O)n4C)cn1 [AZD0156] (first compound max 1 µM, 7x7, partner max 1 µM) | 0.145 | 0.218 | 0.936 | 0.785 | 0.259 | 0.289 | 0.108 | 0.0751 | 0.656 | 0.205 | 0.983 | 0.417 | 0.86 | 0.212 | 0.122 | 0.16 | 0.346 | 0.385 | 0.127 | 0.573
Cc1c2c(nn1C)CSCc1cc(n(C)n1)CSc1cc(c3ccccc3c1)OCCCc1c(C(=O)O)n(C)c3c-2c(Cl)ccc13 [AZD5991] + Cn1cnc2c(F)c(Nc3ccc(Br)cc3Cl)c(C(=O)NOCCO)cc21 [Selumetinib] (first compound max 1 µM, 7x7, partner max 3 µM) | 0.381 | 0.535 | 0.563 | 0.995 | 0.292 | 0.739 | 0.331 | 0.429 | 0.595 | 0.13 | 0.76 | 0.971 | 0.218 | 0.255 | 0.406 | 0.96 | 0.333 | 0.236 | 0.448 | 0.528
CC(=O)c1c(C)c2cnc(Nc3ccc(N4CCNCC4)cn3)nc2n(C2CCCC2)c1=O [Palbociclib] + Cc1c2c(nn1C)CSCc1cc(n(C)n1)CSc1cc(c3ccccc3c1)OCCCc1c(C(=O)O)n(C)c3c-2c(Cl)ccc13 [AZD5991] (first compound max 10 µM, 7x7, partner max 1 µM) | 0.245 | 0.566 | 0.247 | 0.97 | 0.367 | 0.541 | 0.407 | 0.448 | 0.463 | 0.511 | 0.822 | 0.823 | 0.471 | 0.129 | 0.472 | 0.314 | 0.179 | 0.656 | 0.301 | 0.336
COc1nnc2ccc(N3CCC(c4ccc(OCCN5CCN(C)C(=O)[C@H]5C)cc4)CC3)nn12 [AZD5153] + C[C@@H]1COCCN1C2=NC(=NC(=C2)C3(CC3)[S@](=N)(=O)C)C4=C5C=CNC5=NC=C4 [AZD6738] (first compound max 1 µM, 7x7, partner max 10 µM) | 0.54 | 0.584 | 0.513 | 0.525 | 0.89 | 0.788 | 0.484 | 0.739 |  | 0.893 | 0.97 | 0.801 | 0.735 | 0.924 | 0.923 | 0.666 | 0.481 | 0.844 | 0.57 | 0.798
Cn1cnc2c(F)c(Nc3ccc(Br)cc3Cl)c(C(=O)NOCCO)cc21 [Selumetinib] + C[C@@H]1COCCN1C2=NC(=NC(=C2)C3(CC3)[S@](=N)(=O)C)C4=C5C=CNC5=NC=C4 [AZD6738] (first compound max 10 µM, 7x7, partner max 10 µM) | 0.585 | 0.558 | 0.503 | 0.243 | 0.718 | 0.689 | 0.302 | 0.503 |  | 0.675 | 0.97 | 0.855 | 0.261 | 0.739 | 0.945 | 0.91 | 0.32 | 0.713 | 0.552 | 0.681
Cn1cnc2c(F)c(Nc3ccc(Br)cc3Cl)c(C(=O)NOCCO)cc21 [Selumetinib] + CCN(CCO)CCCOc1ccc2c(Nc3cc(CC(=O)Nc4cccc(F)c4)[nH]n3)ncnc2c1 [AZD2811] (first compound max 10 µM, 7x7, partner max 1 µM) | 0.426 | 0.569 | 0.799 | 0.151 | 0.328 | 0.599 | 0.256 | 0.152 |  | 0.134 | 0.866 | 0.858 | 0.548 | 0.246 | 0.838 | 0.906 | 0.226 | 0.413 | 0.485 | 0.624
Cn1cnc2c(F)c(Nc3ccc(Br)cc3Cl)c(C(=O)NOCCO)cc21 [Selumetinib] + CC(C)n1c(=O)n(C)c2cnc3cc(F)c(-c4ccc(OCCCN5CCCCC5)nc4)cc3c21 [AZD1390] (first compound max 10 µM, 7x7, partner max 0.3 µM) | 0.376 | 0.261 | 0.421 | 0.138 | 0.188 | 0.51 | 0.163 | 0.136 |  | 0.108 | 0.241 | 0.846 | 0.122 | 0.132 | 0.606 | 0.854 | 0.238 | 0.0785 | 0.499 | 0.562
COc1nnc2ccc(N3CCC(c4ccc(OCCN5CCN(C)C(=O)[C@H]5C)cc4)CC3)nn12 [AZD5153] + CC1(C)CCC(CN2CCN(c3ccc(C(=O)NS(=O)(=O)c4ccc(NCC5CCOCC5)c([N+](=O)[O-])c4)c(Oc4cnc5[nH]ccc5c4)c3)CC2)=C(c2ccc(Cl)cc2)C1 [Venetoclax] (first compound max 1 µM, 7x7, partner max 1 µM) | 0.335 | 0.289 | 0.329 | 0.612 | 0.55 | 0.668 | 0.266 | 0.481 |  | 0.481 | 0.761 | 0.465 | 0.636 | 0.661 | 0.757 | 0.607 | 0.383 | 0.745 | 0.57 | 0.689
COc1nnc2ccc(N3CCC(c4ccc(OCCN5CCN(C)C(=O)[C@H]5C)cc4)CC3)nn12 [AZD5153] + Cc1c2c(nn1C)CSCc1cc(n(C)n1)CSc1cc(c3ccccc3c1)OCCCc1c(C(=O)O)n(C)c3c-2c(Cl)ccc13 [AZD5991] (first compound max 1 µM, 7x7, partner max 1 µM) | 0.417 | 0.645 | 0.535 | 0.987 | 0.561 | 0.678 | 0.348 | 0.915 |  | 0.461 | 0.934 | 0.864 | 0.507 | 0.905 | 0.78 | 0.89 | 0.413 | 0.726 | 0.512 | 0.704
C[C@@H](c1ccc2nccn2c1)n1nnc2ncc(-c3cnn(C)c3)nc21 [Savolitinib] + Cc1c2c(nn1C)CSCc1cc(n(C)n1)CSc1cc(c3ccccc3c1)OCCCc1c(C(=O)O)n(C)c3c-2c(Cl)ccc13 [AZD5991] (first compound max 1 µM, 7x7, partner max 1 µM) | 0.242 | 0.43 | 0.124 | 0.962 | 0.196 | 0.14 | 0.181 | 0.412 |  | 0.0906 | 0.293 | 0.574 | 0.159 | 0.0965 | 0.211 | 0.192 | 0.112 | 0.138 | 0.166 | 0.221
COc1cc2ncnc(Nc3ccc(F)c(Cl)c3)c2cc1OCCCN1CCOCC1 [Gefitinib] + CC(C)n1c(=O)n(C)c2cnc3cc(F)c(-c4ccc(OCCCN5CCCCC5)nc4)cc3c21 [AZD1390] (first compound max 10 µM, 7x7, partner max 0.3 µM) | 0.253 | 0.248 | 0.0725 | 0.192 | 0.487 | 0.0692 | 0.362 | 0.0839 |  | 0.123 | 0.128 | 0.324 | 0.286 | 0.223 | 0.0688 | 0.149 | 0.285 | 0.382 | 0.188 | 0.0985
